According to ChEMBL document CHEMBL1201862, “PubChem BioAssay data set” (2004):
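Following 48 hours of exposure in 96-well plates, responses at five concentrations were used to interpolate endpoints linearly. The concentration for 50% growth inhibition is given as GI50.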 Calls of active or inactive are those of the source. Rule as the data show it: active = GI50 up to about 1.1 µM and inactive = higher.

Experiments:
Assay in all cases: growth of human tumour cells (NCI), 48 h
A549 = test system: A549
CCRF-CEM = test system: CCRF-CEM
NCI-H522 = test system: NCI-H522
HT-29 = test system: HT-29
RXF 393 = test system: RXF 393
NCI-H23 = test system: NCI-H23
DLD-1 = test system: DLD-1
SK-MEL-2 = test system: SK-MEL-2
SK-OV-3 = test system: SK-OV-3
HOP-62 = test system: HOP-62
CAKI-1 = test system: CAKI-1
HL-60 = test system: HL-60
ACHN = test system: ACHN
SN12C = test system: SN12C
SF-539 = test system: SF-539
OVCAR-8 = test system: OVCAR-8
UO-31 = test system: UO-31
MCF7 = test system: MCF7
NCI/ADR-RES = test system: NCI/ADR-RES
MDA-MB-231 = test system: MDA-MB-231

Measured: GI50

O=C1c2cccc(O)c2C(=O)c2c(O)cc(CO)cc21 [ALOE-EMODIN]
inactive: A549 40 µM | CCRF-CEM 31.3 µM | NCI-H522 22.8 µM | HT-29 30.9 µM | RXF 393 > 100 µM | NCI-H23 > 100 µM | DLD-1 32.5 µM | SK-MEL-2 91.8 µM | SK-OV-3 > 100 µM | HOP-62 > 100 µM | CAKI-1 49.1 µM | HL-60 24.8 µM | ACHN 32.7 µM | SN12C 35.4 µM

C=C1C(=O)OC2C[C@@]3(C)CCCC(=C)C3CC12 (some centres undefined)
inactive: SF-539 1.95 µM | A549 12.2 µM | CCRF-CEM > 100 µM | NCI-H522 1.9 µM | HT-29 7.14 µM | RXF 393 2.77 µM | NCI-H23 13.7 µM | OVCAR-8 11.7 µM | DLD-1 3.49 µM | SK-MEL-2 3.91 µM | SK-OV-3 19.5 µM | HOP-62 20.5 µM | CAKI-1 6.62 µM | ACHN 14 µM | UO-31 4.98 µM | SN12C 4.44 µM

CC1C(=O)C(C)C(c2ccco2)N(N=O)C1c1ccco1 (centres undefined)
inactive: SF-539 > 100 µM | A549 > 100 µM | CCRF-CEM > 100 µM | NCI-H522 > 100 µM | HT-29 > 100 µM | RXF 393 > 100 µM | NCI-H23 > 100 µM | OVCAR-8 > 100 µM | MCF7 > 100 µM | DLD-1 > 100 µM | SK-MEL-2 > 100 µM | SK-OV-3 > 100 µM | HOP-62 > 100 µM | CAKI-1 > 100 µM | HL-60 > 100 µM | NCI/ADR-RES > 100 µM | UO-31 > 100 µM | SN12C > 100 µM

CC1=N/C(=C\c2ccc(N)cc2)C(=O)N1Nc1nnc(NN2C(=O)/C(=C/c3ccc(N)cc3)N=C2C)c2ccccc12
inactive: SF-539 24.8 µM | A549 > 100 µM | CCRF-CEM 18.6 µM | NCI-H522 21.3 µM | HT-29 > 100 µM | RXF 393 22.5 µM | NCI-H23 > 100 µM | OVCAR-8 > 100 µM | DLD-1 > 100 µM | HOP-62 23.1 µM | HL-60 22.1 µM | ACHN > 100 µM | SN12C 96.2 µM

O=C1CCC(=O)C1=NNc1ccccc1
inactive: SF-539 > 100 µM | A549 > 100 µM | CCRF-CEM > 100 µM | HT-29 > 100 µM | RXF 393 > 100 µM | NCI-H23 > 100 µM | OVCAR-8 > 100 µM | DLD-1 > 100 µM | SK-MEL-2 > 100 µM | SK-OV-3 > 100 µM | HOP-62 > 100 µM | CAKI-1 > 100 µM | HL-60 > 100 µM | ACHN > 100 µM | UO-31 > 100 µM | SN12C > 100 µM

CC(Sc1ccccc1)C(CO)(CO)[N+](=O)[O-] (centres undefined)
inactive: SF-539 16.7 µM | A549 19.8 µM | CCRF-CEM 1.85 µM | NCI-H522 13.5 µM | HT-29 16.3 µM | RXF 393 16.4 µM | NCI-H23 16.8 µM | OVCAR-8 14.8 µM | DLD-1 14.3 µM | SK-MEL-2 18.2 µM | SK-OV-3 22.2 µM | HOP-62 18.2 µM | CAKI-1 17.9 µM | HL-60 3.58 µM | ACHN 16.9 µM | UO-31 10.6 µM | SN12C 16.8 µM

CCC1C(C#N)=C(O)NC(O)=C1C#N
inactive: SF-539 > 100 µM | A549 > 100 µM | NCI-H522 > 100 µM | HT-29 > 100 µM | RXF 393 > 100 µM | NCI-H23 > 100 µM | OVCAR-8 > 100 µM | DLD-1 > 100 µM | SK-MEL-2 > 100 µM | SK-OV-3 > 100 µM | HOP-62 > 100 µM | CAKI-1 > 100 µM | ACHN > 100 µM | UO-31 > 100 µM | SN12C > 100 µM

CCOC(=O)Cc1cc(OC)c(OC)cc1/C(Cl)=C(\C=O)c1ccc(OC)c(OC)c1
inactive: A549 16.9 µM | CCRF-CEM > 10 µM | HT-29 15.8 µM | RXF 393 57.8 µM | NCI-H23 19.6 µM | OVCAR-8 25.5 µM | DLD-1 16.3 µM | SK-MEL-2 19.7 µM | SK-OV-3 37.1 µM | HOP-62 9.35 µM | CAKI-1 29.4 µM | HL-60 17.3 µM | ACHN 20.6 µM | UO-31 26.1 µM | SN12C 15.2 µM

O=C(CCN1CCOCC1)/C(=C/c1ccccc1)c1ccccc1
inactive: SF-539 2.92 µM | A549 15.6 µM | CCRF-CEM 1.98 µM | NCI-H522 1.77 µM | HT-29 4.49 µM | RXF 393 1.57 µM | NCI-H23 4.15 µM | OVCAR-8 1.95 µM | MCF7 4.28 µM | DLD-1 1.89 µM | SK-MEL-2 8.17 µM | SK-OV-3 19.3 µM | HOP-62 26.1 µM | CAKI-1 5.14 µM | HL-60 1.79 µM | NCI/ADR-RES 2.48 µM | UO-31 14 µM | SN12C 4.15 µM

O=C1O/C(=C\c2ccc(O)c(Br)c2)C(c2ccc(O)c(Cl)c2)=C1Br
inactive: SF-539 18.6 µM | A549 18.4 µM | CCRF-CEM 12.3 µM | NCI-H522 14.4 µM | HT-29 12.9 µM | RXF 393 17.2 µM | NCI-H23 17.3 µM | OVCAR-8 23 µM | MCF7 16.7 µM | SK-MEL-2 19.1 µM | SK-OV-3 18 µM | MDA-MB-231 37.3 µM | HOP-62 19.9 µM | CAKI-1 27 µM | HL-60 20 µM | ACHN 15.2 µM | NCI/ADR-RES 19.9 µM | UO-31 25.7 µM | SN12C 25.8 µM

O=C(N/C(=C\c1ccccc1[N+](=O)[O-])c1nc2ccccc2[nH]1)c1ccccc1
inactive: CCRF-CEM 57.9 µM | NCI-H522 56.8 µM | HT-29 > 100 µM | RXF 393 56.1 µM | NCI-H23 > 100 µM | OVCAR-8 71.3 µM | DLD-1 93.5 µM | SK-MEL-2 > 100 µM | SK-OV-3 > 100 µM | CAKI-1 > 100 µM | UO-31 45.8 µM | SN12C > 100 µM

OC(c1cc2ccccc2[nH]1)C(O)(c1cc2ccccc2[nH]1)c1cc2ccccc2[nH]1 (centres undefined)
inactive: SF-539 41.4 µM | A549 12.6 µM | CCRF-CEM 12.3 µM | NCI-H522 8.61 µM | HT-29 9.18 µM | RXF 393 7.18 µM | NCI-H23 5.83 µM | OVCAR-8 15.9 µM | DLD-1 11 µM | SK-MEL-2 17.9 µM | SK-OV-3 10.4 µM | HOP-62 15.4 µM | CAKI-1 19.9 µM | HL-60 7.91 µM | ACHN 18.6 µM | SN12C 5.53 µM
